# Laboratory results taken from US20250163057A1, “DCN-1 MODULATING COMPOUNDS AND METHODS OF USE THEREOF” (Cellarity, Inc., priority 2023, published 2025).
# Like-named read-outs stand apart in the source and are kept apart here.
# Legend:
# [1] = target: DCN1 (DCUND1) protein PONY domain (Homo sapiens (Human), UniProt Q96GG9); assay: TR-FRET assay, DCN1 binding with FAM-labeled probe
# In short: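 Binding was read as the TR-FRET ratio between a FAM-tagged inhibitor probe and Tb-labeled biotinylated E. coli-expressed DCN1 PONY domain, measured 1, 5 and 24 h after compound addition. The two setups used 5 nM protein/20 nM FAM-probe or 0.31 nM protein/900 nM total probe (100 nM labeled), in TritonX buffer with 200 mM NaCl.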
# [2] = system: fetal hemoglobin gene HBG1; assay: HBG1 Nanostring Assay in CD34+ HSPC erythroid differentiation culture; format: cell-based, human; settings: for Nanostring Ymax obs (%): relative to a control compound (C1); for EC50: Homo sapiens, 240 h, HBG1 induction, Day10 of erythroid differentiation
# Method: A Nanostring Assay was performed to evaluate the ability of the compounds to induce expression of the fetal hemoglobin gene HBG1 in cells. The data are shown as EC50, with stronger inducers having a lower EC50 value and higher YMax.
# Forty eight hours later (day −2), the cells were passaged at a density of 200,000 cells/ml (100 ul/well in 96well culture plate) in complete expantion media. The cells were plated at 200,000 cells/ml on day 0 and day 3, 400,000 cells/ml on day 5 in phase 1 erythroid differentiation containing StemSpan with 2.5 U/mL of EPO (R&D systems, 287-TC-500), 0.5 mg/mL of Holo-Transferrin (Sigma, T0665-500MG), 1× Glutamine (Gluta-Max) (Gibco, 35050-061), 5 μL/mL Lipid Mixture (Sigma, L0288-100ML), 50 ng/mL SCF (R&D Systems, 255-SV-050), 10 ng/mL IL-3 (R&D Systems, 203-IL010) and 10 ng/mL Insulin (Sigma, I9278-5ML) all 200 μl per well in 96 well culture plate. Cells were then passaged at 500,000 cells/ml and 200 μl per well on day 7 in phase 2 Erythroid differentiation (Phase 1 erythroid differentiation removing IL-3) until collection day (Day10). The culture conditions were used for both control DMSO as well as experimental treatments.
# For all cell pasagings, cells were centrifuged at 300 g for 8 minutes at room temperature and cell number were normalized by MANTIS and Integra VIAFLO 384. All the compounds are diluted in DMSO and added to complete media by Formulatrix FAST and mixed starting from day −2. Cells were counted by Luna cell counter with AOPI Staining Solution (Nexcelom Bioscience, CS2-0106-25 mL) on day-2. Cells were counted by BD FACSCelesta Flow Cytometer with CountBright™ Plus Absolute Counting Beads (Thermal Fisher Scientific, C36995) and SYTOX AADvanced™ Ready Flow™ Reagent (Invitrogen, R37173) for other passages. Cells were cultured at 37° C. and 5% CO2. DMSO concentration was kept at 0.1% to minimize any effects to the cells by the vehicle. […] Compound plates were kept at room temperature to protect from light to avoid multiple freeze and thaw cycle.
# On the collection day (Day10), 100K cells were collected and stored at −80° C. For direct hybridization for Nanostring, 100K cell pellet was lyzed in 25 μL of RLT (QIAGEN, 79216) with 1×β-Mercaptoethanol (Gibco, 21985-023) and shaked at 300-500 RPM for 5 minutes at room temperature. Cell lysate was stored in −80° C. after lysis.
# All hybridizations were done in a total volume of 15 μL (3 μL of RNA lysate added to master mix of 12 μL probe A/B, capture probe/reporter probes, proteinase K and attenuation oligos suspended in hybridization buffer). Samples were hybridized at 67° C. for 22 hr. Following hybridization, the tripartide complexes were purified, immobilized by nCounter Prep Station and imaged by Digital Analyzer (nCounter MAX/FLEX Analysis System), to generate digital counts of barcodes corresponding to each target in the multiplexed reaction. Labeled barcodes obtained from unamplified extracts were counted at 555 images or field of view (FOV). The barcode counts for each sample were recorded in Reporter Code Count (RCC) files that are imported into nSolver analysis software (provided with CodeSet by NS) for quality control evaluation.
# The quality control (QC) metric included limit of detection QC by checking for wells with less than 100 total counts for positive controls.
# Hybridization signals were normalized against the ERCC positive controls and CodeSet Content (housekeeping gene). Briefly, this involved first calculating a sample-specific scaling factor by calculating arithmetic mean of geomeans of all ERCC positive controls with counts more than zero in all samples. Then this arithmetic mean was divided by the geometric mean of each lane to generate a lane-specific normalization factor. All negative controls and target-specific signal values were then normalized by multiplying counts values with their sample-specific scaling factor. The acceptable range for scaling factors is 0.3-3.0. […]
# [3] = system: Cullin-3 (CUL3) neddylation; assay: AlphaLISA assay for Cullin-3 (CUL3) neddylation in TF 1 cells; format: cell-based; settings: Homo sapiens, TF-1, 3 h, 3 hours treatment
# In short: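 TF 1 cells in unsupplemented IMDM treated with compound concentrations for 3 h, then lysed. CUL3 neddylation detected by AlphaLISA (biotinylated anti-NEDD8, anti-CUL3 acceptor beads overnight, streptavidin donor beads 1 h); normalized to vehicle (0%) and 1 μM DI-1548 (100%), IC50 from Hill fits.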
# [4] = 24 hr after treatment with compound, read-out: TR FRET IC50 24 hr
# [5] = read-out: TR FRET IC50 1 hr, 1 hr after treatment with compound
# [6] = TR FRET IC50 1 hr (nM), 1 hr after treatment with compound
# Sequence of DCN1 (DCUND1) protein PONY domain (Q96GG9 60-248): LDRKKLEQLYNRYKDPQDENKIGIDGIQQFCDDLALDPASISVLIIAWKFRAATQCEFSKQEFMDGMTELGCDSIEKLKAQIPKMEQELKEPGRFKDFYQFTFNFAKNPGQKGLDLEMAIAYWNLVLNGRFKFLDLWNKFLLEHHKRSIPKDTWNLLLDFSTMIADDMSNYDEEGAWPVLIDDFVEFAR
SMILES,"IC50 [1, 4] [nM]","IC50 [1, 5] [nM]",Nanostring Ymax obs (%) [2],IC50 [3] [nM],"IC50 [1, 6] [nM]",EC50 [2] [nM]
C=C(C(=O)NCc1nn(-c2ccccc2)c2c1[C@H](c1ccc(F)cc1)[C@H](NC(=O)c1cccc(C(F)(F)F)c1)C(=O)N2CC)C(C)N1CCOCC1 (mixture of isomers) [Compound I-89],≤ 200,≤ 200,++ (Nanostring Ymax greater than 50.0 and less than or equal to 100.0),≤ 100,–,–
"CCN1C(=O)[C@H](NC(=O)c2cccc(C(F)(F)F)c2)[C@H](c2ccc(F)cc2)c2c(C(=O)N3C[C@H](F)C[C@@H]3C#N)nn(-c3ccccc3)c21 (mixture of isomers) [Compound I-253, N-((4RS,5RS)-3-((2R,4R)-2-cyano-4-fluoropyrrolidine-1-carbonyl)-7-ethyl-4-(4-fluorophenyl)-6-oxo-1-phenyl-4,5,6,7-tetrahydro-1H-pyrazolo[3,4-b]pyridine-5-yl)-3-(trifluoromethyl)benzamide]",≤ 200,–,++ (Nanostring Ymax greater than 50.0 and less than or equal to 100.0),≤ 100,1000 to 3000,> 1000
C=C(CN1CC2CCC1CO2)C(=O)NCc1nn(-c2ccccc2)c2c1[C@H](c1ccc(F)cc1)[C@H](NC(=O)c1cccc(C(F)(F)F)c1)C(=O)N2CC (mixture of isomers) [Compound I-447],≤ 200,≤ 200,+++ (Nanostring Ymax greater than 100.0),≤ 100,–,≤ 100
C=C(CN1CC2CC1C2)C(=O)NCc1nn(-c2ccccc2)c2c1[C@H](c1ccc(F)cc1)[C@H](NC(=O)c1cccc(C(F)(F)F)c1)C(=O)N2CC (mixture of isomers) [Compound I-456],≤ 200,≤ 200,++ (Nanostring Ymax greater than 50.0 and less than or equal to 100.0),≤ 100,–,–
C=C(CN1CC2(CCC2O)C1)C(=O)NCc1nn(-c2ccccc2)c2c1[C@H](c1ccc(F)cc1)[C@H](NC(=O)c1cccc(C(F)(F)F)c1)C(=O)N2CC (mixture of isomers) [Compound I-458],≤ 200,≤ 200,++ (Nanostring Ymax greater than 50.0 and less than or equal to 100.0),≤ 100,–,–
C=C(CN1C2COCC1C2)C(=O)NCc1nn(-c2ccccc2)c2c1[C@H](c1ccc(F)cc1)[C@H](NC(=O)c1cccc(C(F)(F)F)c1)C(=O)N2CC (mixture of isomers) [Compound I-573],≤ 200,≤ 200,++ (Nanostring Ymax greater than 50.0 and less than or equal to 100.0),≤ 100,–,–
CCN1C(=O)[C@@H](NC(=O)c2cccc(C(F)(F)F)c2)[C@@H](c2ccc(F)cc2)c2c([C@H](CCO)NC#N)nn(-c3ccccc3)c21 (mixture of isomers) [Compound I-576],≤ 200,–,+ (Nanostring Ymax greater than or equal to 0.0 and less than or equal to 50.0),≤ 100,200 to 1000,> 1000
C=C(CN1C2CCC1COC2)C(=O)NCc1nn(-c2ccccc2)c2c1[C@H](c1ccc(F)cc1)[C@H](NC(=O)c1cccc(C(F)(F)F)c1)C(=O)N2CC (mixture of isomers) [Compound I-613],≤ 200,≤ 200,+++ (Nanostring Ymax greater than 100.0),≤ 100,–,–
C=C(CN1CCN(C2COC2)CC1)C(=O)NCc1nn(-c2ccccc2)c2c1[C@@H](c1ccc(F)cc1)[C@H](NC(=O)c1cccc(C(F)(F)F)c1)C(=O)N2CC (racemic) [Compound I-40],≤ 200,≤ 200,++ (Nanostring Ymax greater than 50.0 and less than or equal to 100.0),≤ 100,–,–
C=C(CN(C)C1COC1)C(=O)NCc1nn(-c2ccccc2)c2c1[C@H](c1ccc(F)cc1)[C@H](NC(=O)c1cccc(C(F)(F)F)c1)C(=O)N2CC (racemic) [Compound I-102],≤ 200,≤ 200,++ (Nanostring Ymax greater than 50.0 and less than or equal to 100.0),≤ 100,–,–
"CCN1C(=O)[C@@H](NC(=O)c2cccc(C(F)(F)F)c2)[C@@H](c2ccc(F)cc2)c2c(CNC/C=C/C(=O)OC)nn(-c3ccccc3)c21 (racemic) [Compound I-127, rac-methyl I-4-((((4R,5R)-7-ethyl-4-(4-fluorophenyl)-6-oxo-1-phenyl-5-(3-(trifluoromethyl)benzamido)-4,5,6,7-tetrahydro-1H-pyrazolo[3,4-b]pyridine-3-yl)methyl)amino)but-2-enoate]",≤ 200,–,++ (Nanostring Ymax greater than 50.0 and less than or equal to 100.0),≤ 100,≤ 200,100 to 1000
C=CS(=O)(=O)NCc1nn(-c2ccccc2)c2c1[C@H](c1ccc(F)cc1)[C@H](NC(=O)c1cccc(C(F)(F)F)c1)C(=O)N2CC (racemic) [Compound I-230],–,–,++ (Nanostring Ymax greater than 50.0 and less than or equal to 100.0),≤ 100,–,> 1000
"CCN1C(=O)[C@@H](NC(=O)c2cccc(C(F)(F)F)c2)[C@@H](c2ccc(F)cc2)c2c(CN(C#N)CCCO)nn(-c3ccccc3)c21 (racemic) [Compound I-246, N-[rac-(4S,5S)-3-[[cyano(3-hydroxypropyl)amino]methyl]-7-ethyl-4-(4-fluorophenyl)-6-oxo-1-phenyl-4,5-dihydropyrazolo[3,4-b]pyridine-5-yl]-3-(trifluoromethyl)benzamide]",200 to 1000,–,++ (Nanostring Ymax greater than 50.0 and less than or equal to 100.0),100 to 1000,200 to 1000,> 1000
"CCN1C(=O)[C@@H](NC(=O)c2cccc(C(F)(F)F)c2)[C@@H](c2ccc(F)cc2)c2c(CN(C)C/C=C/C(=O)OC)nn(-c3ccccc3)c21 (racemic) [Compound I-250, rac-methyl I-4-((((4R,5R)-7-ethyl-4-(4-fluorophenyl)-6-oxo-1-phenyl-5-(3-(trifluoromethyl)benzamido)-4,5,6,7-tetrahydro-1H-pyrazolo[3,4-b]pyridine-3-yl)methyl)(methyl)amino)but-2-enoate]",≤ 200,–,++ (Nanostring Ymax greater than 50.0 and less than or equal to 100.0),≤ 100,200 to 1000,> 1000
C=C(CN(C)C1COC1)C(=O)NCc1nn(-c2ccccc2)c2c1[C@@H](c1ccc(F)cc1)[C@H](NC(=O)c1cccc(C(F)(F)F)c1)C(=O)N2CC (racemic) [Compound I-491],≤ 200,–,++ (Nanostring Ymax greater than 50.0 and less than or equal to 100.0),≤ 100,200 to 1000,≤ 100
